{"source": "paper PMC11992225", "about": "“Antibacterial compounds against non-growing and intracellular bacteria” (npj Antimicrobials and Resistance, 2025)", "key": {"[1]": {"test_system": "non-growing P. aeruginosa DSM1117", "test": "Dose-dependent killing analysis (CFU spot-plating) of stationary-phase P. aeruginosa", "type": "cell-based, Pseudomonas aeruginosa", "conditions": "for log10(CFU/ml) after treatment / killing, average Δlog10(CFU/ml) / log10(CFU/ml) of treated nongrowing bacteria (single replicates): P. aeruginosa; for log10(CFU/ml) after treatment: individual replicates; for reduction of bacterial counts, non-growing P. aeruginosa: at 2.5 µM, 1:4 CA-MHB pH 7.4, 24 h treatment; for log10(CFU/ml) of treated nongrowing bacteria (single replicates): before treatment 8.887", "description": "The cultures were grown and treated for 24 h in 1:4 CA-MHB (pH 7.4).\n(§1) For survival analysis, bacteria were cultivated as described for the dose–response dilution-regrowth assay. Assays with UPEC were conducted at the CBCS screening facility using 96-well plates with a 200 μl sample volume, and compounds were dispensed using the Echo® (Labcyte) system. P. aeruginosa and S. aureus samples were treated according to the protocol used for the dilution-regrowth experiments. Treated samples were serially diluted 10-fold in PBS, and 10 μl drops were spot-plated onto rectangular LB agar plates using either a Beckman NXP robot (for UPEC) or an Integra VIAFLO96 electronic pipette (for P. aeruginosa and S. aureus). The LB agar plates were incubated overnight at 37 °C and scanned. Colonies were counted at the spots of the lowest dilution where individual colonies could be accurately distinguished. Each colony was manually marked on a separate image layer using the GNU Image Manipulation Program, and counted using NIST’s Integrated Colony Enumerator (NICE 1.4) software. The experiments were performed in three biological replicates."}, "non-growing UPEC CFT073": {"test_system": "non-growing UPEC CFT073", "test": "Dose-dependent killing analysis (CFU spot-plating) of stationary-phase UPEC", "type": "cell-based, Escherichia coli", "conditions": "for log10(CFU/ml) after treatment: individual replicates; for log10(CFU/ml) of treated nongrowing bacteria (single replicates): before treatment 8.977", "description": "To differentiate between these scenarios, we used CFU counting by agar plating to assess the bactericidal effect on non-growing bacteria. […] Conversely, if no significant reduction in CFU is observed, the regrowth delay is due to PAE without killing. […] Fluoroquinolones are known to cause PAE after treatment of growing bacterial cultures.\nas §1"}, "[2]": {"conditions": "concentration 2.5, vs CFU before treatment"}, "[3]": {"conditions": "concentration 10, vs CFU before treatment"}, "[4]": {"conditions": "E. coli in 1:4 CA-MHB (pH 7.4), concentration 1"}, "[5]": {"conditions": "E. coli in 1:4 CA-MHB (pH 7.4), concentration 2.5"}, "[6]": {"conditions": "E. coli in 1:4 CA-MHB (pH 7.4), concentration 5"}, "[7]": {"conditions": "E. coli in 1:4 CA-MHB (pH 7.4), concentration 10"}, "[8]": {"conditions": "E. coli in 1:4 CA-MHB (pH 7.4), drug concentration 0.25"}, "[9]": {"conditions": "E. coli in 1:4 CA-MHB (pH 7.4), drug concentration 0.5"}}, "note": "Values joined by “and” are separate entries in the source; they are usually repeats but may differ in a detail not shown here. Identical values can stand only once."}
{"compound": "CO/N=C1\\CN(c2nc3c(cc2F)c(=O)c(C(=O)O)cn3C2CC2)CC1CN", "note": "(stereo not drawn) [Gemifloxacin]", "values": [{"measurement": "log10(CFU/ml) after treatment", "setting": "[1]; concentration 0.1", "result": "8.477 log10(CFU/ml) and 8.778 log10(CFU/ml) and 8.114 log10(CFU/ml)"}, {"measurement": "killing, average Δlog10(CFU/ml)", "setting": "[1]; concentration 0.1, vs CFU before treatment", "result": "0.431 log10(CFU/ml)"}, {"measurement": "log10(CFU/ml) after treatment", "setting": "[1]; concentration 0.5", "result": "7.699 log10(CFU/ml) (2×) and 7.477 log10(CFU/ml)"}, {"measurement": "killing, average Δlog10(CFU/ml)", "setting": "[1]; concentration 0.5, vs CFU before treatment", "result": "1.262 log10(CFU/ml)"}, {"measurement": "log10(CFU/ml) after treatment", "setting": "[1]; concentration 2.5", "result": "=<4 log10(CFU/ml) (2×) and 4.954 log10(CFU/ml)"}, {"measurement": "killing, average Δlog10(CFU/ml)", "setting": "[1]; [2]", "result": "4.569 log10(CFU/ml)"}, {"measurement": "log10(CFU/ml) after treatment", "setting": "[1]; concentration 10", "result": "=<4 log10(CFU/ml) (2×) and 4.477 log10(CFU/ml)"}, {"measurement": "killing, average Δlog10(CFU/ml)", "setting": "[1]; [3]", "result": "4.728 log10(CFU/ml)"}, {"measurement": "reduction of bacterial counts, non-growing P. aeruginosa", "setting": "[1]", "result": "more than four"}, {"measurement": "log10(CFU/ml) after treatment", "setting": "non-growing UPEC CFT073; E. coli in 1:4 CA-MHB (pH 7.4), concentration 0.25", "result": "9.342 log10(CFU/ml) and 9.204 log10(CFU/ml) and 8.505 log10(CFU/ml)"}, {"measurement": "log10(CFU/ml) after treatment", "setting": "non-growing UPEC CFT073; E. coli in 1:4 CA-MHB (pH 7.4), concentration 0.5", "result": "8.845 log10(CFU/ml) and 8.778 log10(CFU/ml) and 8.000 log10(CFU/ml)"}, {"measurement": "log10(CFU/ml) after treatment", "setting": "non-growing UPEC CFT073; [4]", "result": "8.699 log10(CFU/ml) and 8.079 log10(CFU/ml) and 7.301 log10(CFU/ml)"}, {"measurement": "log10(CFU/ml) after treatment", "setting": "non-growing UPEC CFT073; [5]", "result": "8.230 log10(CFU/ml) and 7.602 log10(CFU/ml) and 7.301 log10(CFU/ml)"}, {"measurement": "log10(CFU/ml) after treatment", "setting": "non-growing UPEC CFT073; [6]", "result": "7.903 log10(CFU/ml) and 7.415 log10(CFU/ml) and 7.322 log10(CFU/ml)"}, {"measurement": "log10(CFU/ml) after treatment", "setting": "non-growing UPEC CFT073; [7]", "result": "8.146 log10(CFU/ml) and 7.041 log10(CFU/ml) and 6.602 log10(CFU/ml)"}, {"measurement": "log10(CFU/ml) after treatment", "setting": "non-growing UPEC CFT073; E. coli in LPM (pH 5.5), concentration 0.25", "result": "6.778 log10(CFU/ml) and 7.146 log10(CFU/ml) and 8.322 log10(CFU/ml)"}, {"measurement": "log10(CFU/ml) after treatment", "setting": "non-growing UPEC CFT073; E. coli in LPM (pH 5.5), concentration 0.5", "result": "7.000 log10(CFU/ml) and 7.255 log10(CFU/ml) and 8.301 log10(CFU/ml)"}, {"measurement": "log10(CFU/ml) after treatment", "setting": "non-growing UPEC CFT073; E. coli in LPM (pH 5.5), concentration 1", "result": "7.041 log10(CFU/ml) and 7.362 log10(CFU/ml) and 8.079 log10(CFU/ml)"}, {"measurement": "log10(CFU/ml) after treatment", "setting": "non-growing UPEC CFT073; E. coli in LPM (pH 5.5), concentration 2.5", "result": "6.778 log10(CFU/ml) and 7.255 log10(CFU/ml) and 8.230 log10(CFU/ml)"}, {"measurement": "log10(CFU/ml) after treatment", "setting": "non-growing UPEC CFT073; E. coli in LPM (pH 5.5), concentration 5", "result": "7.230 log10(CFU/ml) and 7.380 log10(CFU/ml) and 8.146 log10(CFU/ml)"}, {"measurement": "log10(CFU/ml) after treatment", "setting": "non-growing UPEC CFT073; E. coli in LPM (pH 5.5), concentration 10", "result": "7.176 log10(CFU/ml) (2×) and 8.230 log10(CFU/ml)"}]}
{"compound": "Cc1oc(=O)oc1CN1CCN(c2cc3c(cc2F)c(=O)c(C(=O)O)c2n3C(C)S2)CC1", "note": "(stereo not drawn) [Prulifloxacin]", "values": [{"measurement": "log10(CFU/ml) after treatment", "setting": "[1]; concentration 2.5", "result": "=<4 log10(CFU/ml) (2×) and 4.602 log10(CFU/ml)"}, {"measurement": "killing, average Δlog10(CFU/ml)", "setting": "[1]; [2]", "result": "4.687 log10(CFU/ml)"}, {"measurement": "log10(CFU/ml) after treatment", "setting": "[1]; concentration 10", "result": "=<4 log10(CFU/ml)"}, {"measurement": "killing, average Δlog10(CFU/ml)", "setting": "[1]; [3]", "result": "4.887 log10(CFU/ml)"}, {"measurement": "killing, average Δlog10(CFU/ml)", "setting": "[1]; drug concentration 0.1", "result": "0.555 log10(CFU/ml)"}, {"measurement": "log10(CFU/ml) of treated nongrowing bacteria (single replicates)", "setting": "[1]; drug concentration 0.1", "result": "8.477 log10(CFU/ml) (2×) and 8.041 log10(CFU/ml)"}, {"measurement": "killing, average Δlog10(CFU/ml)", "setting": "[1]; drug concentration 0.5", "result": "3.168 log10(CFU/ml)"}, {"measurement": "log10(CFU/ml) of treated nongrowing bacteria (single replicates)", "setting": "[1]; drug concentration 0.5", "result": "5.778 log10(CFU/ml) and 6.602 log10(CFU/ml) and 4.778 log10(CFU/ml)"}, {"measurement": "reduction of bacterial counts, stationary phase P. aeruginosa", "setting": "[1]; at 0.5 µM, 24 h treatment", "result": "more than four"}, {"measurement": "reduction of bacterial counts, non-growing P. aeruginosa", "setting": "[1]", "result": "more than four"}, {"measurement": "log10(CFU/ml) after treatment", "setting": "non-growing UPEC CFT073; [4]", "result": "9.041 log10(CFU/ml) (2×) and 8.398 log10(CFU/ml)"}, {"measurement": "log10(CFU/ml) after treatment", "setting": "non-growing UPEC CFT073; [5]", "result": "8.845 log10(CFU/ml) and 8.230 log10(CFU/ml) and 7.903 log10(CFU/ml)"}, {"measurement": "log10(CFU/ml) after treatment", "setting": "non-growing UPEC CFT073; [6]", "result": "8.477 log10(CFU/ml) and 7.699 log10(CFU/ml) and 7.176 log10(CFU/ml)"}, {"measurement": "log10(CFU/ml) after treatment", "setting": "non-growing UPEC CFT073; [7]", "result": "7.903 log10(CFU/ml) and 7.176 log10(CFU/ml) (2×)"}, {"measurement": "killing, average Δlog10(CFU/ml)", "setting": "non-growing UPEC CFT073; [8]", "result": "0.155 log10(CFU/ml)"}, {"measurement": "log10(CFU/ml) of treated nongrowing bacteria (single replicates)", "setting": "non-growing UPEC CFT073; [8]", "result": "9.322 log10(CFU/ml) and 8.845 log10(CFU/ml) and 8.301 log10(CFU/ml)"}, {"measurement": "killing, average Δlog10(CFU/ml)", "setting": "non-growing UPEC CFT073; [9]", "result": "0.462 log10(CFU/ml)"}, {"measurement": "log10(CFU/ml) of treated nongrowing bacteria (single replicates)", "setting": "non-growing UPEC CFT073; [9]", "result": "8.903 log10(CFU/ml) and 8.301 log10(CFU/ml) and 8.342 log10(CFU/ml)"}]}
